Data as given in the supplement of paper PMC10307832.

What was measured:
Experiment in all cases: relative viability (nuclei count vs DMSO), 5 days (fraction); higher = more cells survive
Avagacestat = compound: NC(=O)[C@@H](CCC(F)(F)F)N(Cc1ccc(-c2ncon2)cc1F)S(=O)(=O)c1ccc(Cl)cc1 [Avagacestat]
Method in brief: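 MetaXpress counted nuclei in 4× images of lung cancer cell lines that had been fixed, permeabilised and Hoechst-stained in one step. Before that, cells in 1536-well plates were kept overnight at 37 °C, pinned with five √10-spaced library-drug doses on vehicle-anchored plates, and cultured 5 days without medium change. Viability takes treated-well nuclei over vehicle-well nuclei and uses the median across plates. Plates were accepted only at control CV below 25% and at least one doubling.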

Avagacestat + Navitoclax = compound: NC(=O)[C@@H](CCC(F)(F)F)N(Cc1ccc(-c2ncon2)cc1F)S(=O)(=O)c1ccc(Cl)cc1 [Avagacestat] + CC1(C)CCC(c2ccc(Cl)cc2)=C(CN2CCN(c3ccc(C(=O)NS(=O)(=O)c4ccc(N[C@H](CCN5CCOCC5)CSc5ccccc5)c(S(=O)(=O)C(F)(F)F)c4)cc3)CC2)C1 [Navitoclax] (partner 0.5 µM)
Method in brief: (§1)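 The day after seeding in 1536-well plates, lung cancer cell lines were treated by pin tool with a single drug, or with a fixed anchor-drug dose together with five library-drug doses (not always all listed) in √10 steps. After 5 days, a combined fix-and-stain solution (final 0.05% Triton X-100, 1% formaldehyde, 1 ug/ml Hoechst) was added. Nuclei counted on 4× images gave relative viability as treated counts over vehicle counts, reported as the median of duplicate plates.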

Avagacestat + Tozasertib = compound: NC(=O)[C@@H](CCC(F)(F)F)N(Cc1ccc(-c2ncon2)cc1F)S(=O)(=O)c1ccc(Cl)cc1 [Avagacestat] + Cc1cc(Nc2cc(N3CCN(C)CC3)nc(Sc3ccc(NC(=O)C4CC4)cc3)n2)n[nH]1 [Tozasertib] (partner 0.1 µM)
Method in brief: as §1

Avagacestat + Phenformin = compound: NC(=O)[C@@H](CCC(F)(F)F)N(Cc1ccc(-c2ncon2)cc1F)S(=O)(=O)c1ccc(Cl)cc1 [Avagacestat] + N=C(N)NC(=N)NCCc1ccccc1 [Phenformin] (partner 250 µM)
Method in brief: as §1

Cell Line	relative viability (Avagacestat; 0.08 µM)	relative viability (Avagacestat; 0.253 µM)	relative viability (Avagacestat; 0.8 µM)	relative viability (Avagacestat; 2.53 µM)	relative viability (Avagacestat; 8 µM)	relative viability (Avagacestat + Navitoclax; first compound 0.08 µM)	relative viability (Avagacestat + Navitoclax; first compound 0.253 µM)	relative viability (Avagacestat + Navitoclax; first compound 0.8 µM)	relative viability (Avagacestat + Navitoclax; first compound 2.53 µM)	relative viability (Avagacestat + Navitoclax; first compound 8 µM)	relative viability (Avagacestat + Tozasertib; first compound 0.08 µM)	relative viability (Avagacestat + Tozasertib; first compound 0.253 µM)	relative viability (Avagacestat + Tozasertib; first compound 0.8 µM)	relative viability (Avagacestat + Tozasertib; first compound 2.53 µM)	relative viability (Avagacestat + Tozasertib; first compound 8 µM)	relative viability (Avagacestat + Phenformin; first compound 0.08 µM)	relative viability (Avagacestat + Phenformin; first compound 0.253 µM)	relative viability (Avagacestat + Phenformin; first compound 0.8 µM)	relative viability (Avagacestat + Phenformin; first compound 2.53 µM)	relative viability (Avagacestat + Phenformin; first compound 8 µM)
NCI-H1437	1.09	0.997	1.1	0.915	0.877	1.39	1.22	1.1	1.04	0.979	0.416	0.457	0.41	0.377	0.307	0.382	0.378	0.342	0.266	0.287
NCI-H1650	1.1	1.08	0.95	1.13	0.881	1.1	1.31	1.52	1.43	1.12	0.47	0.378	0.468	0.393	0.333	0.446	0.416	0.484	0.455	0.412
NCI-H1651	1.08	1.09	1.13	0.98	0.922	1.28	1.33	1.3	1.07	0.764	0.955	0.862	0.719	0.609	0.585	0.321	0.343	0.358	0.293	0.354
NCI-H1666	1.28	1.18	1.26	1.17	1.17	1.15	1.11	1.17	0.955	1.02	0.726	0.602	0.706	0.582	0.586	0.686	0.639	0.619	0.603	0.603
NCI-H1734	1.04	1.19	1	1.04	0.994	1.11	0.96	0.875	0.777	0.724	0.235	0.301	0.264	0.236	0.24	0.451	0.433	0.366	0.373	0.384
NCI-H1755	1.03	1.1	1.17	0.941	0.964	1.08	1.21	1.09	0.959	0.943	0.641	0.562	0.575	0.624	0.54	0.714	0.652	0.655	0.623	0.577
NCI-H1793	1.04	1.11	1.06	0.858	0.846	0.434	0.491	0.507	0.347	0.396	0.307	0.329	0.655	0.239	0.3	0.411	0.291	0.337	0.284	0.319
NCI-H1915	1.04	1.21	1.06	1.03	0.978	0.84	0.812	0.798	0.807	0.828	0.51	0.48	0.464	0.393	0.398	0.396	0.396	0.368	0.412	0.357
NCI-H1944	1.06	1.15	0.924	0.865	0.922	1.14	1.09	1.03	0.989	0.993	0.256	0.314	0.232	0.222	0.257	0.231	0.236	0.226	0.18	0.204
NCI-H1975	1.02	1.21	1.15	0.943	0.967	1.26	1.28	1.25	1.07	1.02	1.01	0.945	0.928	0.603	0.367	0.48	0.422	0.42	0.398	0.42
NCI-H1993	1.16	1.09	1.34	0.93	1.01	1.08	0.995	1.09	0.905	1.04	0.604	0.594	0.529	0.541	0.539	0.548	0.531	0.473	0.451	0.59
NCI-H2009	1.04	1.09	1.04	1.04	0.912	1.27	1.23	1.17	1.12	1.13	0.879	0.836	0.812	0.61	0.532	0.562	0.595	0.514	0.491	0.455
NCI-H2023	1.18	1.22	1.1	0.912	0.804	1.14	1.28	1.12	0.834	0.894	0.513	0.479	0.396	0.289	0.254	0.474	0.476	0.453	0.35	0.368
NCI-H2085	1.05	1.02	1.04	1.1	0.985	1.21	1.37	1.13	1.26	1.08	0.849	0.894	0.842	0.803	0.829	0.85	0.756	0.726	0.862	0.729
NCI-H2087	1.29	1.06	1.12	1.08	1.06	1.34	1.19	1.02	1.16	0.931	0.218	0.286	0.277	0.248	0.237	0.535	0.561	0.548	0.467	0.441
NCI-H2126	0.994	1.04	1.06	0.921	0.936	1.02	0.899	0.875	0.798	0.832	0.81	0.859	0.906	0.334	0.778	0.509	0.516	0.569	0.561	0.511
NCI-H2170	1.08	1.18	0.994	0.938	0.932	0.745	0.594	0.621	0.417	0.548	0.807	0.782	0.812	0.72	0.646	0.418	0.411	0.377	0.406	0.382
NCI-H2228	1.07	1.22	1.29	0.9	1.01	1.25	1.19	1.08	0.903	0.956	0.206	0.255	0.206	0.224	0.242	0.417	0.263	0.271	0.296	0.243
NCI-H2347	1.1	1.07	1.13	1.03	0.97	0.907	0.866	0.923	0.663	0.797	0.452	0.52	0.526	0.519	0.503	0.363	0.537	0.602	0.448	0.357
NCI-H2405	1.01	0.99	1.08	0.956	0.97	0.864	0.937	0.779	0.638	0.797	0.718	0.751	0.747	0.714	0.661	0.393	0.45	0.44	0.381	0.408
NCI-H3122	1.07	1.08	1.05	0.995	0.927	0.95	1.09	1.08	1.01	1.03	0.446	0.517	0.419		0.384	0.405	0.391	0.428		0.405
PC-3 [JPC-3]	1.2	1.08	1.25	1.05	1.02	0.908	0.885	0.864	0.821	0.761	1.01	0.99	1.08	0.943	0.826	0.461	0.443	0.487	0.472	0.521
PC-14	1.32	1.18	1.35	1.02	0.922	1.19	1.19	1.12	0.97	0.899	0.733	0.859	0.925	0.692	0.633	0.768	0.728	0.86		0.628
RERF-LC-KJ	1.07	1.1	1.04	0.945	0.856	1.11	0.878	0.874	0.982	1.1	0.5	0.471	0.466	0.418	0.379	0.435	0.495	0.412	0.431	0.367
SK-LU-1	1.21	1.03	1.02	0.83	0.908	1.11	1.08	1	0.706	0.93	0.317	0.318	0.329	0.269	0.31	0.539	0.499	0.523	0.353	0.474
SK-MES-1	1.14	1.08	1.06	0.92	0.889	1.32	1.29	1.27	1.2	1.27	1.13	1.23	1.07	0.874	0.783	0.739	0.827	0.721	0.635	0.606
SW 1573	1.14	1.14	1.06	0.972	0.895	1.3	0.97	0.989	1.04	0.974	0.169	0.195	0.173	0.217	0.176	0.498	0.431	0.366	0.369	0.341
UMC-11	1.04	1.07	1.1	1.02	1.06	0.324	0.316	0.321	0.286	0.299	0.206	0.225	0.201	0.195	0.202	0.36	0.352	0.364	0.341	0.321
